The test system of one series is BTNW914 (MGMT−). As to the kind of experiment: Cell viability of patient derived primary GBM culture BTNW914 (MGMT−). It is filed as cell-based, human. The conditions noted are these: Homo sapiens, 144 h; 6 days incubation; read-out: IC50 against MGMT devoid GBM primary cells. The protocol: (§1) Fig. 2 (A) Cell viability of BTNW914 (MGMT−) after treatment by TMZ and phenyl TMZ ester analogues at various clinically relevant concentrations and incubation for 6 days. (B) Cell Viability of BTNW374 (MGMT+) after treatment by TMZ and phenyl TMZ ester analogues at various clinically relevant concentrations. Values are reported as the percentage of viable cells ± SD, n = 3.
(§2) Cytotoxic evaluation of the analogues was completed against 4 cell lines and 2 primary GBM cultures. The human glioma cell lines, GOS-3, U87-MG and 1321-N1 along with the human astroglial cell line, SVGp12, were purchased from The European Collection of Cell Cultures (ECCAC, UK) and Deutsche Sammlung von Mikroorganismen und Zellkulturen (DMSZ, Germany). Patient derived primary GBM cultures, BTNW374 and BTNW914, were obtained from The Brain Tumour North West Tissue Bank in collaboration with The Royal Preston Hospital. Patient data for primary cells was included as part of the ESI. ^†
(§3) 1321-N1 (human astrocytoma) was maintained in DMEM medium supplemented with 2 mM L-glutamine and 10% FBS. GOS-3, (human brain mixed astro-oligodendroglioma) was maintained in DMEM medium supplemented with 2 mM L-glutamine and 10% […]. U87-MG, (human glioblastoma) and SVGp12 (normal human astroglia) were maintained in EMEM medium supplemented with 2 mM L-glutamine, 1 mM sodium pyruvate and 10% FBS. All cell lines were incubated at 37 °C and 5% CO2 in a humidified incubator. Primary BTNW cultures were maintained in Ham's F10 nutrient mixture, containing 20 mM HEPES, 2 mM glutamine and 10% FBS. Primary cultures were incubated in a humidified incubator at 37 °C.
(§4) Cells were seeded in the appropriate media in each well of a Costar 96-well plate at a density of 5 × 10^2 immortalised cells; 2 × 10^3 (primary cells). The plates were incubated at 37 °C and 5% CO2 in a humidified incubator for 24 hours to allow cells to adhere. Each of the drugs tested were dissolved in DMSO to afford a 200 mM stock solution. The stock solutions were diluted with medium to afford the final working concentrations, ensuring DMSO concentration was no greater than 0.5% (v/v). Drug concentrations were added to the cells and incubated for 144 hours. After incubation, the drug concentrations were removed and replaced with 100 μL of CellTiter-Glo® and 100 μL of media. The luminescence of each well was measured on GENios Pro plate reader. The results for each of the drug concentrations were expressed as a percentage of the control wells. For cell lines, the regression equation for a polynomial line of best fit of order 2 was used to calculate the IC50. In the case of the in vitro model used in the present study, the IC50 was defined as the concentration of drug that results in a 50% reduction in oxyluciferin production. Primary culture cells were incubated with clinically relevant concentrations for 144 hours. Viability was expressed as a percentage of the control wells. Each experiment involving cell lines was carried out in triplicate of triplicates. Experiments using patient derived primary cultures were carried out in triplicate.

For series [1], the system named is porcine liver esterase (PLE). The series can be described thus: Stability of phenolic TMZ esters on exposure to porcine liver esterase. The series is classed as in vitro ADME. As to conditions: pH 6, 37 °C. The protocol:
The hydrolysis was monitored by the decrease in the peak area of the corresponding TMZ esters, however, due to sensitivity of the imidazotetrazine ring to pH, the experiments were carried out at pH 6 to avoid the formation of imidazoles. The validation of the analytical method also involved investigating the stability of the imidazotetrazine ring whilst ensuring PLE retained a significant level of activity.
A disodium phosphate, citric acid buffer (pH 6) was prepared by using disodium phosphate (Na2HPO4·12H2O, 200 mM) and citric acid (100 mM). A stock solution of 80 mg/100 mL of each of the TMZ esters (3h, 3i, 3j, 3k, 3l and 3n) were prepared in DMSO. The control reaction, without enzyme, was prepared by adding 3000 μL of buffer to the reaction vessel along with 56.25 μL of the stock solution. The test reaction, with enzyme, was prepared by adding 2999 μL of buffer to the reaction vessel along with 56.25 μL of TMZ ester. The final concentration of TMZ esters in the reaction vessels was 1.47 mg/100 mL. Porcine liver esterase (1 μL) was added to the test reaction at zero time (minutes). Both the control and test reactions were then incubated at 37 °C. Aliquots of 200 μL were transferred from the reaction vessels to 2 mL Eppendorf tubes, at 3 minute intervals for 30 minutes. The reaction was quenched by adding 200 μL of acetonitrile. […]

The test system of the next series is GOS-3. As to the kind of experiment: CellTiter-Glo cytotoxicity against GOS-3 cells. It is filed as cell-based. As to conditions: Homo sapiens; 144 hours incubation, IC50 ± SD (n = 3). As to the method: (§5) Apoptosis of glioma cells induced by TMZ, occurs at least 120 hours after treatment.[7] Consequently, cells were incubated for 144 hours with specified TMZ analogues in the in vitro investigations in order to obtain more reliable IC50 values.
as §3, §4
(§6) Initial screening of the 25 analogues was completed using the U87-MG cell line. The most promising analogues from the initial screening were taken forward and tested against the 1321-N1, GOS-3 and SVG-p12 cell lines. The results of all 4 cell lines were compiled and the analogues that were deemed to be the most promising drug candidates were tested against primary cultures at clinically relevant concentrations.

The next series has as its system 1321-N1. The series can be described thus: CellTiter-Glo cytotoxicity against 1321-N1 cells. The series is classed as cell-based. As to conditions: Homo sapiens, 144 hours incubation, IC50 ± SD (n = 3). As to the method: as §5, §3, §4, §6
A further series has as its system BTNW374 (MGMT+). The series can be described thus: Cell viability of patient derived primary GBM culture BTNW374 (MGMT+). As to conditions: human, 144 h, 75 μM. It is filed as cell-based, human. As to the method: as §1, §2, §3, §4
The next series has as its system SVGp12. The series can be described thus: CellTiter-Glo cytotoxicity against normal SVGp12 cell line. It is filed as cell-based. The conditions noted are these: Homo sapiens, 144 hours incubation, IC50 ± SD (n = 3). The protocol: as §5, §3, §4, §6
A general note: ATP-based viability assays read luminescence as a measure of living cells.

The test system of the next series is U87-MG cells. The series can be described thus: CellTiter-Glo cytotoxicity against U87-MG cells. As to conditions: Homo sapiens, U-87 MG, 144 hours incubation, IC50 ± SD (n = 3). The series is classed as cell-based. The protocol:
as §5, §3, §4, §6

[2] abbreviates: initial screening, CellTiter-Glo, read-out: IC50 against U87-MG cells.
The mark [3] stands for this setting: lead analogues (Table 2), read-out: IC50 U87-MG.

We go through two molecules from article PMC9053583, “A novel series of phenolic temozolomide (TMZ) esters with 4 to 5-fold increased potency, compared to TMZ, against glioma cells irrespective of MGMT expression” (RSC Advances, 2020).

Read-outs that look alike come from different tables or passages of the source. Where only a bound is given, the exact number is not on record here.

In the case of `Cn1nnc2c(C(=O)Oc3ccc(C#N)cc3)ncn2c1=O` [Analogue 3k, 4-Cyanophenyl 3-methyl-4-oxo-3,4-dihydroimidazo[5,1-d][1,2,3,5]tetrazine-8-carboxylate], the melting point – broadly, the temperature, or range, at which the solid turns liquid – turned out to be 192 °C. In the series on BTNW914 (MGMT−), the IC50 – broadly, the midpoint of a concentration-inhibition curve – is under 15 µM. In addition, the “Time taken to hydrolyse 50% of the ester” value in series [1] stood at 13.7 min. This molecule also had a half-inhibitory concentration (IC50) in the series with GOS-3 of 151 ± 4 µM. Besides, the 50% inhibitory concentration (IC50) with 1321-N1 turned out to be 103 ± 7 µM. Besides, the “cytotoxicity against MGMT positive patient derived primary culture” value in the series with BTNW374 (MGMT+) is recorded as “generated cytotoxicity at 75 μM”. For the same molecule, in the series on SVGp12, the half-inhibitory concentration (IC50) was 36 ± 3 µM. Besides, in the series with U87-MG cells (setting [2]), the 50% inhibitory concentration (IC50) turned out to be 138 ± 7 µM. For the same molecule, the IC50 in the series with U87-MG cells (setting [3]) was found to be 137 ± 7 µM.

`COc1ccc(OC(=O)c2ncn3c(=O)n(C)nnc23)cc1` [Analogue 3h, 4-Methoxyphenyl 3-methyl-4-oxo-3,4-dihydroimidazo [5,1-d][1,2,3,5] tetrazine-8-carboxylate] came in with a melting point of 172 °C. In addition, the 50% inhibitory concentration (IC50) with BTNW914 (MGMT−) was under 15 µM. Further, the “Time taken to hydrolyse 50% of the ester” value in series [1] was 7.3 min. For the same molecule, half-maximal inhibition in the series on GOS-3 (IC50) required 183 ± 5 µM. This molecule came in with a half-inhibitory concentration (IC50) with 1321-N1 of 183 ± 1 µM. Besides, the “cytotoxicity against MGMT positive patient derived primary culture” value in the series on BTNW374 (MGMT+) is “generated cytotoxicity at 75 μM”. In addition, 44 ± 2 µM corresponded to half-maximal inhibition in the series on SVGp12 (IC50). Besides, the IC50 with U87-MG cells (setting [2]) is 134 ± 7 µM. Besides, in the series with U87-MG cells (setting [3]), the half-inhibitory concentration (IC50) was determined as 134 ± 7 µM.
